Test results as given in US5679638A, “Method for treating a tumor with a chemotherapeutic agent” (Biopure Corporation, priority 1993, dated 1997).

Tests used:
Lewis lung carcinoma = Lewis lung carcinoma growth delay; type: in vivo, mouse (male C57BL); details: for Lewis lung carcinoma growth delay, Mean Days: NSAID days 4-18; for Increase of growth delay by addition of UPHS: drug + UPHS vs drug
Procedure: The Lewis lung tumor was carried in male C57BL mice (Taconic Laboratories, Germantown, N.Y.). For the experiments, 2×10^6 tumor cells prepared from a brei of several stock tumors were implanted subctaneously into the legs of male mice aged 8-10 weeks. […] Animals bearing Lewis lung tumors were treated daily with intraperitoneal Mino (10 mg/kg), Diflun (15 mg/kg) or Sulin (15 mg/kg) on days 4-18 following tumor implantation. When the tumors had reached a volume of approximately 100 mm^3 (day 7 after tumor cell implantation), cytotoxic therapy was initiated.
Therapy consisted of treatment with an antitumor alkylating agent, an antitumor antimetabolite, a non-steroidal anti-inflammatory drug (NSAID) and/or UPHS. […] CTX therapy consisted of three successive 150 mg/kg CTX doses administered by intraperitoneal injections on days 7, 9 and 11. BCNU therapy consisted of three successive 15 mg/Kg BCNU doses administered by intraperitoneal injections on days 7, 9 and 11. Therapy with the antimetabolite 5-fluorouracil(5-FU) consisted of 4 successive 40 mg/kg 5-FU doses administered by intraperitoneal injections daily on days 7 to 11. The 5-FU was purchased from Sigma Chemical Co., St. Louis, Mo. Fourteen doses of 10 mg/kg of NSAID were administered daily by intraperitoneal injections on days 4 to 18. UPHS was injected into the tail vein in 8 ml/kg doses daily on days 7-11.
The progress of each tumor was measured thrice weekly until it had reached a volume of 500 mm^3. Tumor growth delay was calculated as the number of days required for each treated tumor to reach a volume of 500 mm^3 as compared with untreated control tumors. Each treatment group comprised six animals and the experiment was repeated three times.
On the twentieth day after the subcutaneous tumor implantation, the delay in Lewis Lung Carcinoma tumor growth was evaluated. Tumor growth delay data is presented as the mean value ±SE calculated for the treatment group as compared with the control group.

[1] = tested on: intracranial 9L gliosarcoma; assay: Life span of rats with intracranial 9L gliosarcoma; type: in vivo, rat (male Fischer 344); details: for % Increased from Control (life span) / Survival Days: Table II; for % Increased from Control (life span) / Increase in life span with UPHS prior to the drug therapy: vs untreated control; for Survival Days: control 26 ± 2.2 days, CDDP 8 mg/kg day 7, BCNU 3 x 15, CTX or IFOS 3 x 100 mg/kg days 7, 9, 11, UPHS 8 ml/kg; for Significance of increase in life span, drug alone: 25% or more is therapeutically significant; for Effectiveness against intracranial 9L tumors: relative statement among BCNU, CTX, CDDP, IFOS
Procedure: The 9L gliosarcoma (9L) cells were obtained as a gift of 9L/SF gliosarcoma cells from Dr. Dennis Dean, University of California, San Francisco. These cells were maintained in culture in .varies.-MEM (Grand Island Biological Co., Grand Island, N.Y.) and supplemented with 10% fetal bovine serum (Sterile Systems, Inc., Logan, Utah) and with antibiotics. The 9L cells (4×10^4) in 10 μL of media without serum were implanted intracranially in male Fischer 344 rats (Taconic Farms, Germantown, N.Y.) weighing 200-250 gm on day 0. Each rat was anesthetized with sodium pentobarbital. A midline scalp incision was made and a hole was bored through the skull with 23 gauge needle at a point 2 mm lateral to the midline. The cell suspension was injected into the right frontal lobe at a depth of 3 mm from the dural surface. The needle was removed and the hole filled with dental cement. The scalp was sealed with a surgical clip. Two days later 9L cells (2×10^6) were implanted subcutaneously into the flank of each animal. When the tumors were approximately 100 mm^3 in volume, 7 days after tumor cell implantation, 8 ml/kg of UPHS was injected via the tail vein. After injecting the UPHS, administration of chemotherapeutic agents was initiated. […] BCNU therapy consisted of three 15 mg/kg BCNU doses administered by intraperitoneal injection days 7, 9 and 11. CTX and ifosfamide (IFOS) therapy consisted of three 100 mg/kg CTX or IFOS doses administered by intraperitoneal injection on days 7, 9 and 11. For the BCNU, CTX and IFOS therapies, UPHS was intravenously administered prior to each chemotherapeutic agent injection on days 7, 9 and 11. The IFOS was purchased from the Dana-Farber Cancer Institute. Survival of animals was monitored daily. Animals that were moribund or unable to reach food or water were killed by CO2 inhalation.
The effect of the treatments on the growth of the intracranial tumor was determined by the increase in life span of treated groups compared with the untreated controls. A percentage increase in life span of 25% or more is therapeutically significant.

[2] = WITH UPHS (8 ml/kg daily days 7-11), CDDP or PAM 10 mg/kg, CTX 3 x 150, BCNU 3 x 15, 5-FU 40 mg/kg
[3] = WITHOUT UPHS, CDDP or PAM 10 mg/kg day 7, CTX 3 x 150, BCNU 3 x 15 mg/kg days 7, 9, 11, 5-FU 40 mg/kg
[4] = intracranial (life span) and subcutaneous (growth delay) 9L tumors

Row | Structure (SMILES) | Lewis lung carcinoma growth delay, Mean Days (Lewis lung carcinoma; [2]) | Lewis lung carcinoma growth delay, Mean Days (Lewis lung carcinoma; [3]) | Increase of growth delay by addition of UPHS (Lewis lung carcinoma) | % Increased from Control (life span) [1] | Survival Days [1] | Increase in life span with UPHS prior to the drug therapy [1] | Significance of increase in life span, drug alone [1] | Increase in therapeutic response upon addition of UPHS ([1]; rat, in vivo, sc) | Effectiveness against intracranial 9L tumors [1] | Increase in therapeutic response upon addition of UPHS [1, 4] | Tumor growth delay relative to other drugs (Lewis lung carcinoma; vs CDDP, PAM, BCNU or 5-FU)
1 | O=NN(CCCl)C(=O)NCCCl [BCNU, N,N-bis(2-chloroethyl)-N-nitrosourea] | 5.3 ± 0.5 days | 3.6 ± 0.4 days | also enhanced, to a lesser degree | 22% | 31.6 days | 38% | did not reach significance | improved to a greater degree, as determined by increase in life span, against the intracranial tumor than against the subcutaneous tumor | moderately effective against the intracranial 9L tumors |  | 
2 | N.N.[Cl][Pt][Cl] [CDDP, cis-diaminodichloroplatinum(II)] | 5.7 ± 0.4 days | 4.5 ± 0.3 days | also enhanced, to a lesser degree | 29% | 33.6 days | 46% | significant increase in life span |  | very effective against both subcutaneous and intracranial 9L tumors | improved to a greater degree, as determined by increase in life span, against the intracranial tumor than against the subcutaneous tumor | 
3 | O=P1(N(CCCl)CCCl)NCCCO1 (stereo not shown) [CTX, Cyclophosphamide] | 43.1 ± 2.9 days | 21.5 ± 1.7 days | more than two-fold | 20% | 31.3 days | 43% | did not reach significance |  | least effective treatments for intracranial 9L tumors | greatest increases in therapeutic response upon addition of UPHS | substantially longer than that resulting from CDDP, PAM, BCNU or 5-FU
4 | N[C@@H](Cc1ccc(N(CCCl)CCCl)cc1)C(=O)O [PAM, Melphalan] | 6.8 ± 0.4 days | 2.7 ± 0.3 days | more than two-fold |  |  |  |  |  |  |  | 
